Reference: US12350270B2, “Antimalarial agents” (Merck Sharp & Dohme LLC, priority 2019, dated 2025)

Each compound was assayed on parasites (ring stage, in human red blood cell culture) (assay: Parasite LDH growth assay (antiparasite potency, Parasite Assay)). Conditions: 0.7% rings, 2% haematocrit, 72 hours at 37° C., LDH readout of parasite growth.
Type: cell-based, Plasmodium falciparum
In short: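 Ring-stage parasites at 0.7% parasitemia and 2% haematocrit, in RPMI-Hepes/bicarbonate with 5% heat-inactivated human serum and 0.5% albumax, were added to compound-containing medium. Cultures grew 72 h at 37 °C in gassed humidified boxes. Plates were then frozen overnight at −80 °C, thawed 4 h, and growth was measured by LDH assay.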

| SMILES | EC50 |
| --- | --- |
| COCC1(C)Oc2ccc(C(=O)N[C@@H]3c4ccccc4OC(C)(C)[C@H]3O)cc2C1N1C(=N)NC(C)(C)CC1=O (stereo partly drawn) [Example 256, N-[(3S,4R)-3-hydroxy-2,2-dimethyl-chroman-4-yl]-3-(2-imino-4,4-dimethyl-6-oxo-hexahydropyrimidin-1-yl)-2-(methoxymethyl)-2-methyl-3H-benzofuran-5-carboxamide] | 8.9 nM |
| COCC1(C)Oc2ccc(C(=O)N[C@@H]3c4ccccc4OC(C)(C)[C@H]3O)cc2C1N1C(=N)NC(C)(C)CC1=O (stereo partly drawn) [Example 257, N-[(3S,4R)-3-hydroxy-2,2-dimethyl-chroman-4-yl]-3-(2-imino-4,4-dimethyl-6-oxo-hexahydropyrimidin-1-yl)-2-(methoxymethyl)-2-methyl-3H-benzofuran-5-carboxamide] | 189 nM |
| CCOC(=O)C1(C)Oc2ccccc2C1NC(=O)c1ccc2c(c1)[C@H](N1C(=N)NC(CC)(CC)CC1=O)CCO2 (stereo partly drawn) [Example 275, ethyl 3-[[(4R)-4-(4,4-diethyl-2-imino-6-oxo-hexahydropyrimidin-1-yl)chromane-6-carbonyl]amino]-2-methyl-3H-benzofuran-2-carboxylate] | 25.7 nM |

Same assay, conditions: Plasmodium falciparum, Erythrocyte, 72 h, 0.7% rings, 2% haematocrit, 72 hours at 37° C., LDH readout of parasite growth

| SMILES | EC50 |
| --- | --- |
| CCC1(CC)CC(=O)N([C@H]2c3cc(C(=O)N[C@@H]4c5ccccc5CC[C@H]4O)ccc3O[C@@]2(C)COC)C(=N)N1 [Example 249, (2R,3S)-3-(4,4-diethyl-2-imino-6-oxo-hexahydropyrimidin-1-yl)-N-[(1R,2R)-2-hydroxytetralin-1-yl]-2-(methoxymethyl)-2-methyl-3H-benzofuran-5-carboxamide] | 1.1 nM |
| CCC1(CC)CC(=O)N([C@H]2c3cc(C(=O)N[C@H]4c5ccccc5CC[C@@H]4O)ccc3O[C@@]2(C)COC)C(=N)N1 [Example 250, (2R,3S)-3-(4,4-diethyl-2-imino-6-oxo-hexahydropyrimidin-1-yl)-N-[(1S,2S)-2-hydroxytetralin-1-yl]-2-(methoxymethyl)-2-methyl-3H-benzofuran-5-carboxamide] | 219 nM |
| CC[C@]1(C)CC(=O)N([C@H]2c3cc(C(=O)N[C@@H]4c5ccccc5OC[C@@]4(C)O)ccc3OC[C@@H]2COC)C(=N)N1 [Example 252, (3S,4R)-4-[(4R)-4-ethyl-2-imino-4-methyl-6-oxo-hexahydropyrimidin-1-yl]-N-[(3S,4R)-3-hydroxy-3-methyl-chroman-4-yl]-3-(methoxymethyl)chromane-6-carboxamide] | 2.1 nM |
| CCC1(CC)CC(=O)N([C@H]2c3cc(C(=O)N[C@@H]4c5ccccc5OC[C@]4(C)O)ccc3OC[C@@H]2OC)C(=N)N1 [Example 253, (3R,4S)-4-(4,4-diethyl-2-imino-6-oxo-hexahydropyrimidin-1-yl)-N-[(3R,4R)-3-hydroxy-3-methyl-chroman-4-yl]-3-methoxy-chromane-6-carboxamide] | 4.3 nM |
| CCC1(CC)CC(=O)N([C@H]2c3cc(C(=O)N[C@@H]4c5ccccc5OC[C@@]4(C)O)ccc3OC[C@@H]2OC)C(=N)N1 [Example 254, (3R,4S)-4-(4,4-diethyl-2-imino-6-oxo-hexahydropyrimidin-1-yl)-N-[(3S,4R)-3-hydroxy-3-methyl-chroman-4-yl]-3-methoxy-chromane-6-carboxamide] | 3.4 nM |
| CC[C@]1(C)CC(=O)N([C@H]2c3cc(C(=O)N[C@@H]4c5ccccc5OC(C)(C)[C@H]4O)ccc3OC[C@@H]2OC)C(=N)N1 [Example 255, (3R,4S)-4-[(4R)-4-ethyl-2-imino-4-methyl-6-oxo-hexahydropyrimidin-1-yl]-N-[(3S,4R)-3-hydroxy-2,2-dimethyl-chroman-4-yl]-3-methoxy-chromane-6-carboxamide] | 3.3 nM |
| CCC1(CC)CC(=O)N([C@@H]2CCS(=O)(=O)c3ccc(C(=O)N[C@@H]4c5ccccc5C[C@@]4(C)O)cc32)C(=N)N1 [Example 260, (4R)-4-(4,4-diethyl-2-imino-6-oxo-hexahydropyrimidin-1-yl)-N-[(1R,2R)-2-hydroxy-2-methyl-indan-1-yl]-1,1-dioxo-3,4-dihydro-2H-thiochromene-6-carboxamide] | 8.2 nM |
| CCC1(CC)CC(=O)N([C@H]2CCS(=O)(=O)c3ccc(C(=O)N[C@@H]4c5ccccc5C[C@@]4(C)O)cc32)C(=N)N1 [Example 261, (4S)-4-(4,4-diethyl-2-imino-6-oxo-hexahydropyrimidin-1-yl)-N-[(1R,2R)-2-hydroxy-2-methyl-indan-1-yl]-1,1-dioxo-3,4-dihydro-2H-thiochromene-6-carboxamide] | 133 nM |
| CCC1(CC)CC(=O)N([C@@H]2CCS(=O)(=O)c3ccc(C(=O)N[C@@H]4c5ccccc5C[C@]4(C)O)cc32)C(=N)N1 [Example 262, (4R)-4-(4,4-diethyl-2-imino-6-oxo-hexahydropyrimidin-1-yl)-N-[(1R,2S)-2-hydroxy-2-methyl-indan-1-yl]-1,1-dioxo-3,4-dihydro-2H-thiochromene-6-carboxamide] | 7.4 nM |
| CCC1(CC)CC(=O)N([C@H]2CCS(=O)(=O)c3ccc(C(=O)N[C@@H]4c5ccccc5C[C@]4(C)O)cc32)C(=N)N1 [Example 263, (4S)-4-(4,4-diethyl-2-imino-6-oxo-hexahydropyrimidin-1-yl)-N-[(1R,2S)-2-hydroxy-2-methyl-indan-1-yl]-1,1-dioxo-3,4-dihydro-2H-thiochromene-6-carboxamide] | 74.8 nM |
| CCC1(CC)CC(=O)N([C@@H]2CCOc3ccc(C(=O)NC(CCc4ccccc4)c4ccccc4)cc32)C(=N)N1 (stereo partly drawn) [Example 264, (4R)-4-(4,4-diethyl-2-imino-6-oxo-hexahydropyrimidin-1-yl)-N-(1,3-diphenylpropyl)chromane-6-carboxamide] | 3.3 nM |
| CC1(C)CC(=O)N([C@@H]2CCS(=O)(=O)c3ccc(C(=O)N[C@@H]4c5ccccc5OC(C)(C)[C@H]4O)cc32)C(=N)N1 [Example 265, (4R)-N-[(3S,4R)-3-hydroxy-2,2-dimethyl-chroman-4-yl]-4-(2-imino-4,4-dimethyl-6-oxo-hexahydropyrimidin-1-yl)-1,1-dioxo-3,4-dihydro-2H-thiochromene-6-carboxamide] | 31.1 nM |
| CCC1(CC)CC(=O)N([C@@H]2CCOc3ccc(C(=O)N[C@@H]4c5cc(Cl)ccc5OC[C@@]4(C)O)cc32)C(=N)N1 [Example 266, (4R)-N-[(3S,4R)-6-chloro-3-hydroxy-3-methyl-chroman-4-yl]-4-(4,4-diethyl-2-imino-6-oxo-hexahydropyrimidin-1-yl)chromane-6-carboxamide] | 2.6 nM |
| CC[C@]1(C)CC(=O)N([C@@H]2CCOc3ccc(C(=O)N[C@@H]4C[C@@H](COC(F)F)Oc5ccccc54)cc32)C(=N)N1 [Example 267, (4R)-N-[(2S,4R)-2-(difluoromethoxymethyl)chro-man-4-yl]-4-[(4R)-4-ethyl-2-imino-4-methyl-6-oxo-hexahydropyrimidin-1-yl]chromane-6-carboxamide] | 24 nM |
| CC[C@]1(C)CC(=O)N([C@@H]2CCOc3ccc(C(=O)N[C@@H]4C[C@H](COC(F)F)Oc5ccccc54)cc32)C(=N)N1 [Example 268, (4R)-N-[(2R,4R)-2-(difluoromethoxymethyl)chro-man-4-yl]-4-[(4R)-4-ethyl-2-imino-4-methyl-6-oxo-hexahydropyrimidin-1-yl]chromane-6-carboxamide] | 25 nM |
| CC[C@]1(C)CC(=O)N([C@@H]2CCOc3ccc(C(=O)N[C@H]4C[C@H](COC(F)F)Oc5ccccc54)cc32)C(=N)N1 [Example 269, (4R)-N-[(2R,4S)-2-(difluoromethoxymethyl)chro-man-4-yl]-4-[(4R)-4-ethyl-2-imino-4-methyl-6-oxo-hexahydropyrimidin-1-yl]chromane-6-carboxamide] | 2.9 nM |
| CC[C@]1(C)CC(=O)N([C@@H]2CCOc3ccc(C(=O)N[C@H]4C[C@@H](COC(F)F)Oc5ccccc54)cc32)C(=N)N1 [Example 270, (4R)-N-[(2S,4S)-2-(difluoromethoxymethyl)chro-man-4-yl]-4-[(4R)-4-ethyl-2-imino-4-methyl-6-oxo-hexahydropyrimidin-1-yl]chromane-6-carboxamide] | 1.8 nM |
| CCC1(CC)CC(=O)N([C@@H]2CCOc3ccc(C(=O)NC4c5ccc(C(F)(F)F)cc5CC4N)cc32)C(=N)N1 (stereo partly drawn) [Example 271, (4R)-N-[2-amino-5-(trifluoromethyl)indan-1-yl]-4-(4,4-diethyl-2-imino-6-oxo-hexahydropyrimidin-1-yl)chromane-6-carboxamide] | 182 nM |
| CC1(C)CC(=O)N([C@@H]2CCOc3ccc(C(=O)N[C@@H]4c5cc(Cl)cc(Cl)c5OC[C@@]4(C)O)cc32)C(=N)N1 [Example 273, (4R)-N-[(3S,4R)-6,8-dichloro-3-hydroxy-3-methyl-chroman-4-yl]-4-(2-imino-4,4-dimethyl-6-oxo-hexahydropyrimidin-1-yl)chromane-6-carboxamide] | 7.8 nM |
| CCC1(CC)CC(=O)N(C2CC(C(=O)N(C)C)Oc3ccc(C(=O)N[C@@H]4c5ccccc5C[C@H]4O)cc32)C(=N)N1 (stereo partly drawn) [Example 274, 4-(4,4-diethyl-2-imino-6-oxo-hexahydropyrimidin-1-yl)-N6-[(1R,2R)-2-hydroxyindan-1-yl]-N2,N2-dimethyl-chromane-26,-dicarboxamide] | 98.5 nM |
| CCC1(CC)CC(=O)N([C@H]2c3cc(C(=O)N[C@@H]4c5ccccc5OC(C)(C)[C@H]4O)ccc3CC[C@@H]2OC)C(=N)N1 [Example 276, (3S,4S)-4-(4,4-diethyl-2-imino-6-oxo-hexahydropyrimidin-1-yl)-N-[(3S,4R)-3-hydroxy-2,2-dimethyl-chroman-4-yl]-3-methoxy-tetralin-6-carboxamide] | 0.6 nM |
| CCC1(CC)CC(=O)N([C@H]2c3cc(C(=O)N[C@@H]4c5ccccc5OC[C@]4(C)O)ccc3O[C@]2(C)COC)C(=N)N1 [Example 278, (2S,3S)-3-(4,4-diethyl-2-imino-6-oxo-hexahydropyrimidin-1-yl)-N-[(3R,4R)-3-hydroxy-3-methyl-chroman-4-yl]-2-(methoxymethyl)-2-methyl-3H-benzofuran-5-carboxamide] | 12.2 nM |
